Assay results as given in PMC3280276 (PLoS ONE, 2012).

System: C-terminal peptide […]
Assay type: binding

Q: How did the “interaction with C-terminal peptide […]” value turn out when saporin was run?
A: The value was “did not observe any measurable interactions”.
